Experimental data as given in the NIST ThermoML archive (doi:10.1021/je060271a).
± gives the expanded uncertainty stated by the source.

Details: 303.16 K, Liquid, Vibrating tube method

CCCC(=O)OCC(COC(=O)CCC)(COC(=O)CCC)COC(=O)CCC [pentaerythritol tetrabutyrate]
Details | mass density [kg/m3]
11210 kPa | 1049.3 ± 1.3
11243 kPa | 1049.3 ± 1.3
11283 kPa | 1049.4 ± 1.3
11317 kPa | 1049.5 ± 1.3
11359 kPa | 1049.5 ± 1.3
11394 kPa | 1049.4 ± 1.3
11436 kPa | 1049.6 ± 1.3
11472 kPa | 1049.6 ± 1.3
11511 kPa | 1049.6 ± 1.3
11541 kPa | 1049.5 ± 1.3
11577 kPa | 1049.6 ± 1.3
11607 kPa | 1049.6 ± 1.3
11641 kPa | 1049.7 ± 1.3
11666 kPa | 1049.6 ± 1.3
11688 kPa | 1049.6 ± 1.3
11714 kPa | 1049.7 ± 1.3
11736 kPa | 1049.8 ± 1.3
11763 kPa | 1049.7 ± 1.3
11789 kPa | 1049.7 ± 1.3
11811 kPa | 1049.8 ± 1.3
11838 kPa | 1049.7 ± 1.3
11865 kPa | 1049.9 ± 1.3
11888 kPa | 1049.8 ± 1.3
11910 kPa | 1049.8 ± 1.3
11936 kPa | 1049.9 ± 1.3
11964 kPa | 1049.8 ± 1.3
11987 kPa | 1049.8 ± 1.3
12015 kPa | 1049.9 ± 1.3
12038 kPa | 1049.9 ± 1.3
12068 kPa | 1049.8 ± 1.3
12093 kPa | 1049.9 ± 1.3
12117 kPa | 1050 ± 1.3
12145 kPa | 1050 ± 1.3
12173 kPa | 1050 ± 1.3
12197 kPa | 1050 ± 1.3
12221 kPa | 1050 ± 1.3
12250 kPa | 1050.1 ± 1.3
12278 kPa | 1050 ± 1.3
12302 kPa | 1050.2 ± 1.3
12331 kPa | 1050.1 ± 1.3
12356 kPa | 1050.1 ± 1.3
12385 kPa | 1050.2 ± 1.3
12416 kPa | 1050.1 ± 1.3
12441 kPa | 1050.1 ± 1.3
12466 kPa | 1050.1 ± 1.3
12496 kPa | 1050.2 ± 1.3
12521 kPa | 1050.1 ± 1.3
12551 kPa | 1050.3 ± 1.3
12576 kPa | 1050.2 ± 1.3
12607 kPa | 1050.3 ± 1.3
12637 kPa | 1050.3 ± 1.3
12663 kPa | 1050.3 ± 1.3
12694 kPa | 1050.2 ± 1.3
12720 kPa | 1050.2 ± 1.3
12751 kPa | 1050.3 ± 1.3
12782 kPa | 1050.3 ± 1.3
12808 kPa | 1050.4 ± 1.3
12840 kPa | 1050.4 ± 1.3
12867 kPa | 1050.4 ± 1.3
12899 kPa | 1050.5 ± 1.3
12926 kPa | 1050.4 ± 1.3
12959 kPa | 1050.5 ± 1.3
12986 kPa | 1050.6 ± 1.3
13019 kPa | 1050.6 ± 1.3
13051 kPa | 1050.6 ± 1.3
13078 kPa | 1050.5 ± 1.3
13111 kPa | 1050.6 ± 1.3
13173 kPa | 1050.6 ± 1.3
13201 kPa | 1050.6 ± 1.3
13235 kPa | 1050.5 ± 1.3
13264 kPa | 1050.6 ± 1.3
13297 kPa | 1050.5 ± 1.3
13332 kPa | 1050.7 ± 1.3
13360 kPa | 1050.6 ± 1.3
13395 kPa | 1050.8 ± 1.3
13424 kPa | 1050.7 ± 1.3
13459 kPa | 1050.9 ± 1.3
13493 kPa | 1050.9 ± 1.3
13522 kPa | 1050.8 ± 1.3
13558 kPa | 1050.8 ± 1.3
13589 kPa | 1050.9 ± 1.3
13625 kPa | 1050.9 ± 1.3
13656 kPa | 1050.9 ± 1.3
13693 kPa | 1050.9 ± 1.3
13723 kPa | 1051 ± 1.3
13761 kPa | 1051 ± 1.3
13791 kPa | 1050.9 ± 1.3
13829 kPa | 1050.9 ± 1.3
13859 kPa | 1051.1 ± 1.3
13897 kPa | 1051 ± 1.3
13934 kPa | 1051 ± 1.3
13966 kPa | 1050.9 ± 1.3
14003 kPa | 1051.1 ± 1.3
14035 kPa | 1051.2 ± 1.3
14072 kPa | 1051.1 ± 1.3
14111 kPa | 1051.1 ± 1.3
14144 kPa | 1051.1 ± 1.3
14184 kPa | 1051.2 ± 1.3
14217 kPa | 1051.3 ± 1.3
14257 kPa | 1051.4 ± 1.3
14291 kPa | 1051.4 ± 1.3
14332 kPa | 1051.2 ± 1.3
14367 kPa | 1051.3 ± 1.3
14409 kPa | 1051.4 ± 1.3
14443 kPa | 1051.4 ± 1.3
14483 kPa | 1051.4 ± 1.3
14513 kPa | 1051.5 ± 1.3
14547 kPa | 1051.5 ± 1.3
14581 kPa | 1051.5 ± 1.3
14609 kPa | 1051.5 ± 1.3
14643 kPa | 1051.4 ± 1.3
14672 kPa | 1051.4 ± 1.3
14706 kPa | 1051.5 ± 1.3
14740 kPa | 1051.5 ± 1.3
14770 kPa | 1051.6 ± 1.3
14804 kPa | 1051.6 ± 1.3
14839 kPa | 1051.7 ± 1.3
14868 kPa | 1051.5 ± 1.3
14907 kPa | 1051.6 ± 1.3
14937 kPa | 1051.7 ± 1.3
14972 kPa | 1051.7 ± 1.3
15002 kPa | 1051.8 ± 1.3
15038 kPa | 1051.9 ± 1.3
15069 kPa | 1051.7 ± 1.3
15106 kPa | 1051.8 ± 1.3
15136 kPa | 1051.8 ± 1.3
15174 kPa | 1051.7 ± 1.3
15210 kPa | 1051.9 ± 1.3
15242 kPa | 1051.9 ± 1.3
15279 kPa | 1051.8 ± 1.3
15312 kPa | 1051.9 ± 1.3
15345 kPa | 1051.9 ± 1.3
15384 kPa | 1052.1 ± 1.3
15415 kPa | 1052 ± 1.3
15453 kPa | 1052 ± 1.3
15492 kPa | 1052 ± 1.3
15525 kPa | 1052.1 ± 1.3
15564 kPa | 1052.2 ± 1.3
15597 kPa | 1052.1 ± 1.3
15637 kPa | 1052.1 ± 1.3
15671 kPa | 1052.1 ± 1.3
15710 kPa | 1052.1 ± 1.3
15743 kPa | 1052.1 ± 1.3
15783 kPa | 1052.3 ± 1.3
15823 kPa | 1052.2 ± 1.3
15857 kPa | 1052.2 ± 1.3
15897 kPa | 1052.3 ± 1.3
